Assay results as given in patent EP4707280A1, “1,4-CINEOLE DERIVATIVE AND INTERMEDIATE THEREOF, HERBICIDE CONTAINING SAID DERIVATIVE AS ACTIVE INGREDIENT, METHOD FOR USING HERBICIDE, AND METHOD FOR PREPARING AGROCHEMICAL COMPOSITION” (HOKKO CHEMICAL INDUSTRY CO., LTD., priority 2023, dated 2024).

What was measured:
Assay type in all cases: in vivo
[1] = tested on: Echinochloa crus-galli var. formosensis; assay: Test Example 6: herbicidal effect test by application during growth period of paddy rice (low dose); settings: Echinochloa crus-galli; 7.5 g per 10 ares; applied seven days after sowing, flooded pots; 14 days after application; read-out: weed inhibition rate
Summary of the method: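 Paddy-soil pots, flooded ~3 cm after sowing weed seeds at 0-1 cm depth, greenhouse-grown. Seven days after sowing, diluted emulsifiable concentrate applied by dropper at 7.5 g active ingredient per 10 ares. Weed inhibition rate (%) scored 14 days after application, in duplicate.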

[2] = tested on: Echinochloa crus-galli var. formosensis; assay: Test Example 5: herbicidal effect test by soil application in paddy rice (low dose); settings: Echinochloa crus-galli, soil, 336 h; 7.5 g per 10 ares; applied immediately after sowing, flooded pots; 14 days after application; read-out: weed inhibition rate
Summary of the method: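 Pots of puddled, fertilized paddy soil receive 30 seeds per species at 0–1 cm depth and are flooded to about 3 cm. The diluted emulsifiable concentrate is then dropped onto the water, delivering 7.5 g active ingredient per 10 ares. Greenhouse grown; herbicidal effect scored 14 days later, two replicates.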

Echinochloa crus-galli [3] = assay: Test Example 4: herbicidal effect test by stem and leaf treatment in upland field; settings: Echinochloa crus-galli; 120 g per 10 ares; sprayed seven days after sowing, upland soil; 14 days after application; read-out: weed inhibition rate
[4] = tested on: Echinochloa crus-galli var. formosensis; assay: Test Example 2: herbicidal effect test by application during growth period of paddy rice; settings: Echinochloa crus-galli; 120 g per 10 ares; applied seven days after sowing, flooded pots; 14 days after application; read-out: weed inhibition rate
Summary of the method: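 Weeds sown into puddled, flooded paddy soil received a post-emergence water application of emulsifiable concentrate at 120 g active ingredient per 10 ares, seven days after sowing. Herbicidal effect was rated 14 days later as inhibition (%).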

[5] = tested on: Echinochloa crus-galli var. formosensis; assay: Test Example 1: herbicidal effect test by soil application in paddy rice; settings: Echinochloa crus-galli, soil, 336 h; 120 g active ingredient per 10 ares; applied immediately after sowing, flooded pots; 14 days after application; read-out: weed inhibition rate
Summary of the method: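 Weeds sown 0–1 cm deep (30 seeds each) into fertilized, puddled paddy soil in Wagner pots. Pots are flooded immediately, water held near 3 cm, and the diluted emulsifiable concentrate is dripped in at once, delivering 120 g active ingredient per 10 ares under glass-greenhouse management.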

Echinochloa crus-galli [6] = assay: Test Example 7: herbicidal effect test by soil application in upland field (low dose); settings: Echinochloa crus-galli, 7.5 g per 10 ares, sprayed one day after sowing, 14 days after application, read-out: weed inhibition rate
Experimental: (§1) The present test was conducted in duplicate for each chemical concentration group, and the weed inhibition rate (%) was determined 14 days after chemical application using the following formula (Math. 1). [formula]
(§2) Pots with an area of 36 cm^2 were filled with upland soil (alluvial loam), twenty seeds each of weeds of Digitaria ciliaris, and Echinochloa crus-galli were uniformly mixed with the top 1 cm layer of soil and the surface was lightly pressed down. One day after sowing, an emulsifiable concentrate prepared according to Formulation Example 5 using the compound shown below was diluted with water, and the diluted solution was sprayed onto the soil surface at a rate of 100 liters per 10 ares. The amount of the active ingredient to be applied was equivalent to 7.5 g per 10 ares. Fourteen days after chemical application, the herbicidal effect was evaluated according to the same criteria as in Test Example 1.

Digitaria ciliaris [7] = assay: as above; settings: Digitaria ciliaris, 7.5 g per 10 ares, sprayed one day after sowing, 14 days after application, read-out: weed inhibition rate
Experimental: as §1, §2

Echinochloa crus-galli [8] = assay: Test Example 3: herbicidal effect test by soil application in upland field; settings: Echinochloa crus-galli, 120 g per 10 ares, sprayed one day after sowing, 14 days after application, read-out: weed inhibition rate
Summary of the method: (§3)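 Pre-emergence test: seeds mixed into top 1 cm of alluvial loam upland soil in pots; emulsifiable concentrate diluted in water sprayed on soil one day after sowing at 100 L/10 a, 120 g a.i./10 a. Weed inhibition rate (%) scored at 14 days, in duplicate.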

Digitaria ciliaris [9] = assay: as above; settings: Digitaria ciliaris, 120 g per 10 ares, sprayed one day after sowing, 14 days after application, read-out: weed inhibition rate
Summary of the method: as §3

Digitaria ciliaris [10] = assay: Test Example 4: herbicidal effect test by stem and leaf treatment in upland field; settings: Digitaria ciliaris; 120 g per 10 ares; sprayed seven days after sowing, upland soil; 14 days after application; read-out: weed inhibition rate
Echinochloa crus-galli [11] = assay: Test Example 8: herbicidal effect test by stem and leaf treatment in upland field (low dose); settings: Echinochloa crus-galli; 7.5 g per 10 ares; sprayed seven days after sowing, upland soil; 14 days after application; read-out: weed inhibition rate
Experimental: as §1
as §2, with “Seven days” for “One day”

Digitaria ciliaris [12] = assay: as above; settings: Digitaria ciliaris; 7.5 g per 10 ares; sprayed seven days after sowing, upland soil; 14 days after application; read-out: weed inhibition rate
Experimental: as §1
as §2, with “Seven days” for “One day”

CCc1ccccc1CO[C@@H]1C[C@]2(C(C)C)O[C@@]1(C)C[C@@H]2Br [1-682, (1S,2R,4R,5S)-5-bromo-2-[(2-ethylphenyl)methoxy]-1-methyl-4-isopropyl-7-oxabicyclo[2.2.1]heptane]
≥ 80%: inhibition at 75 g/ha [1] | inhibition at 75 g/ha [2] | inhibition at 1200 g/ha (Echinochloa crus-galli [3]) | inhibition at 1200 g/ha [4] | pest or weed control at 1200 g/ha [5] | inhibition at 75 g/ha (Echinochloa crus-galli [6]) | inhibition at 75 g/ha (Digitaria ciliaris [7]) | inhibition at 1200 g/ha (Echinochloa crus-galli [8]) | inhibition at 1200 g/ha (Digitaria ciliaris [9]) | inhibition at 1200 g/ha (Digitaria ciliaris [10]) | inhibition at 75 g/ha (Echinochloa crus-galli [11]) | inhibition at 75 g/ha (Digitaria ciliaris [12])

CC(C)[C@]12C[C@@H](OCc3ccccn3)[C@](C)(C[C@@H]1Br)O2 [1-718, 2-[[(1S,2R,4R,5S)-5-bromo-1-methyl-4-isopropyl-7-oxabicyclo[2.2.1]heptan-2-yl]oxymethyl]pyridine]
≥ 80%: inhibition at 75 g/ha [1] | inhibition at 75 g/ha [2] | inhibition at 1200 g/ha (Echinochloa crus-galli [3]) | inhibition at 1200 g/ha [4] | pest or weed control at 1200 g/ha [5] | inhibition at 75 g/ha (Echinochloa crus-galli [6]) | inhibition at 75 g/ha (Digitaria ciliaris [7]) | inhibition at 1200 g/ha (Echinochloa crus-galli [8]) | inhibition at 1200 g/ha (Digitaria ciliaris [9]) | inhibition at 1200 g/ha (Digitaria ciliaris [10]) | inhibition at 75 g/ha (Echinochloa crus-galli [11]) | inhibition at 75 g/ha (Digitaria ciliaris [12])

Cc1ccccc1COC1CC2(C(C)C)OC1(C)CC2Br (stereo not drawn) [1-1343, 5-bromo-1-methyl-2-[(2-methylphenyl)methoxy]-4-isopropyl-7-oxabicyclo[2.2.1]heptane]
≥ 80%: inhibition at 75 g/ha [1] | inhibition at 75 g/ha [2] | inhibition at 1200 g/ha (Echinochloa crus-galli [3]) | inhibition at 1200 g/ha [4] | pest or weed control at 1200 g/ha [5] | inhibition at 75 g/ha (Echinochloa crus-galli [6]) | inhibition at 75 g/ha (Digitaria ciliaris [7]) | inhibition at 1200 g/ha (Echinochloa crus-galli [8]) | inhibition at 1200 g/ha (Digitaria ciliaris [9]) | inhibition at 1200 g/ha (Digitaria ciliaris [10]) | inhibition at 75 g/ha (Echinochloa crus-galli [11]) | inhibition at 75 g/ha (Digitaria ciliaris [12])

COc1ccccc1COC1CC2(C(C)C)OC1(C)CC2Br (stereo not drawn) [1-1349, 5-bromo-2-[(2-methoxyphenyl)methoxy]-1-methyl-4-isopropyl-7-oxabicyclo[2.2.1]heptane]
≥ 80%: inhibition at 75 g/ha [1] | inhibition at 75 g/ha [2] | inhibition at 1200 g/ha (Echinochloa crus-galli [3]) | inhibition at 1200 g/ha [4] | pest or weed control at 1200 g/ha [5] | inhibition at 75 g/ha (Echinochloa crus-galli [6]) | inhibition at 75 g/ha (Digitaria ciliaris [7]) | inhibition at 1200 g/ha (Echinochloa crus-galli [8]) | inhibition at 1200 g/ha (Digitaria ciliaris [9]) | inhibition at 1200 g/ha (Digitaria ciliaris [10]) | inhibition at 75 g/ha (Echinochloa crus-galli [11]) | inhibition at 75 g/ha (Digitaria ciliaris [12])

CC(C)C12CC(OCc3ccc(F)cc3)C(C)(CC1Br)O2 (stereo not drawn) [1-1357, 5-bromo-2-[(4-fluorophenyl)methoxy]-1-methyl-4-isopropyl-7-oxabicyclo[2.2.1]heptane]
≥ 80%: inhibition at 75 g/ha [1] | inhibition at 75 g/ha [2] | inhibition at 1200 g/ha (Echinochloa crus-galli [3]) | inhibition at 1200 g/ha [4] | pest or weed control at 1200 g/ha [5] | inhibition at 75 g/ha (Echinochloa crus-galli [6]) | inhibition at 75 g/ha (Digitaria ciliaris [7]) | inhibition at 1200 g/ha (Echinochloa crus-galli [8]) | inhibition at 1200 g/ha (Digitaria ciliaris [9]) | inhibition at 1200 g/ha (Digitaria ciliaris [10]) | inhibition at 75 g/ha (Echinochloa crus-galli [11]) | inhibition at 75 g/ha (Digitaria ciliaris [12])
